From patent US7122519B2, “Didemnin analogs and fragments and methods of making and using them” (priority 2000, dated 2006)

Experiments:
protein biosynthesis = experiment: inhibition of protein biosynthesis; assay type: biochemical; details: concentration of compound; read-out: Protein Synthesis (inhibition of protein biosynthesis)
Source text: (§1) Initial results are shown in Table 2 for inhibition of protein biosynthesis (column 1), cytotoxicity (column 2), and anti-tumor activity (column 3) of tamandarin A, as compared to the related anti-tumor compound didemnin B. The results in Table 2 are given in units of concentration of the selected compound.

tumor = experiment: anti-tumor activity (Assay Mean); assay type: cell-based
Source text: as §1

[1] = tested on: NCI-60 60 tumor cell line panel; experiment: cytotoxicity, NCI-60 tumor cell line panel mean; assay type: cell-based
Procedure: as §1
As used herein, “GI50” refers to the dose of a compound which is capable of producing 50% inhibition of cell growth. GI50 is assessed by comparing growth of cells to which a compound has been administered with growth of the same cells to which the compound has not been administered.
As used herein, “LC50” refers to the dose of a compound which is capable of producing 50% lethality in cells. LC50 is assessed by comparing death of cells in a population of cells to which a compound has been administered with the death of cells in a population of the same cells to which the compound has not been administered.
“NCI-60” refers to a 60 tumor cell line panel which from the National Cancer Institute (NCI, Frederick, MD). “NCI-60 Mean” is the average GI50 or LC50 for the panel treated with the selected compound.

pancreatic carcinoma = details: cited from earlier work

| Molecule | IC50 (protein biosynthesis) | Anti-tumor activity (Assay Mean) (tumor) | cytotoxicity compared with didemnin B ([1]; in vitro, assays of Table 2) | LC50 ([1]; mean over 60 tumor cell line panel, 50% lethality in cells) | in vitro activity against pancreatic carcinoma compared with didemnin B (pancreatic carcinoma) |
| --- | --- | --- | --- | --- | --- |
| CC[C@H](C)[C@H]1NC(=O)[C@@H](NC(=O)[C@@H](CC(C)C)N(C)C(=O)[C@@H]2CCCN2C(=O)C(C)O)[C@@H](C)OC(=O)[C@H](Cc2ccc(OC)cc2)N(C)C(=O)[C@@H]2CCCN2C(=O)[C@H](CC(C)C)NC(=O)[C@@H](C)C(=O)[C@H](C(C)C)OC(=O)C[C@@H]1O (stereo partly shown) [Didemnin B, reference compound] | 4 µM | 1.58 nM | – | – | – |
| tamandarin A | 1.3 µM | 1.31 nM | significantly less cytotoxic | 4.8 µM | greater in vitro activity |
